# Tested on: 883617-216-R-J1-PDC complex spheroid viability
# Test: Anticancer human tumor 883617-216-R-J1-PDC patient-derived bladder carcinoma cell line growth inhibition [POLQ]
# Details: for IC50: curve of first compound; for viability, T/C: stronger effect = lower value
# In short: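 Growth inhibition in 3D: complex spheroids (tumor PDC, HUVEC, MSC) treated with POLQ inhibitor combinations; where Cmax unknown, highest tested concentration 10 microM, except SN-38 at 1 microM.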
# [1] = second compound 0.0316 µM, first compound 0.0316 µM
# [2] = second compound 0.0316 µM, first compound 0.1 µM
# [3] = second compound 0.0316 µM, first compound 0.316 µM
# [4] = second compound 0.0316 µM, first compound 1 µM
# [5] = second compound 0.0316 µM, first compound 3.16 µM
# [6] = second compound 0.0316 µM, first compound 10 µM
# [7] = second compound 0.1 µM, first compound 0.0316 µM
# [8] = second compound 0.1 µM, first compound 0.1 µM
# [9] = second compound 0.1 µM, first compound 0.316 µM
# [10] = second compound 0.1 µM, first compound 1 µM
# [11] = second compound 0.1 µM, first compound 3.16 µM
# [12] = second compound 0.1 µM, first compound 10 µM
# [13] = second compound 0.316 µM, first compound 0.0316 µM
# [14] = second compound 0.316 µM, first compound 0.1 µM
# [15] = second compound 0.316 µM, first compound 0.316 µM
# [16] = second compound 0.316 µM, first compound 1 µM
# [17] = second compound 0.316 µM, first compound 3.16 µM
# [18] = second compound 0.316 µM, first compound 10 µM
# [19] = second compound 1 µM, first compound 0.0316 µM
# [20] = second compound 1 µM, first compound 0.1 µM
# [21] = second compound 1 µM, first compound 0.316 µM
# [22] = second compound 1 µM, first compound 1 µM
# [23] = second compound 1 µM, first compound 3.16 µM
# [24] = second compound 1 µM, first compound 10 µM
# [25] = second compound 3.16 µM, first compound 0.0316 µM
# [26] = second compound 3.16 µM, first compound 0.1 µM
# [27] = second compound 3.16 µM, first compound 0.316 µM
# [28] = second compound 3.16 µM, first compound 1 µM
# [29] = second compound 3.16 µM, first compound 3.16 µM
# [30] = second compound 3.16 µM, first compound 10 µM
# [31] = second compound 10 µM, first compound 0.0316 µM
# [32] = second compound 10 µM, first compound 0.1 µM
# [33] = second compound 10 µM, first compound 0.316 µM
# [34] = second compound 10 µM, first compound 1 µM
# [35] = second compound 10 µM, first compound 3.16 µM
# [36] = second compound 10 µM, first compound 10 µM
# 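Also: spheroids exposed to compounds for seven days before readout.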
# 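For viability, T/C in this document: 100% = DMSO vehicle control viability.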
compound,measurement,setting,value
CCc1cc2c(N3CCc4c(cc(Cn5ccnc5)cc4-c4cn(C)nc4C(F)(F)F)C3=O)ccnc2c(OC)n1 + Cc1cccc(N(C)C(=O)C2C(O)CCN2c2nc(C)cc(C(F)(F)F)c2C#N)c1,IC50,second compound 0.0316 µM,> 10 µM
same,IC50,second compound 0.1 µM,> 10 µM
same,IC50,second compound 0.316 µM,8.04 µM
same,IC50,second compound 1 µM,> 10 µM
same,IC50,second compound 3.16 µM,8.36 µM
same,IC50,second compound 10 µM,8.04 µM
same,"viability, T/C",[1],91.7%
same,"viability, T/C",[2],103%
same,"viability, T/C",[3],82.1%
same,"viability, T/C",[4],82%
same,"viability, T/C",[5],70%
same,"viability, T/C",[6],53.5%
same,"viability, T/C",[7],93%
same,"viability, T/C",[8],107%
same,"viability, T/C",[9],84.2%
same,"viability, T/C",[10],96.6%
same,"viability, T/C",[11],73.4%
same,"viability, T/C",[12],50.7%
same,"viability, T/C",[13],102%
same,"viability, T/C",[14],104%
same,"viability, T/C",[15],101%
same,"viability, T/C",[16],98%
same,"viability, T/C",[17],76.6%
same,"viability, T/C",[18],43.7%
same,"viability, T/C",[19],98.4%
same,"viability, T/C",[20],101%
same,"viability, T/C",[21],87.8%
same,"viability, T/C",[22],94.4%
same,"viability, T/C",[23],68.2%
same,"viability, T/C",[24],61.1%
same,"viability, T/C",[25],99.6%
same,"viability, T/C",[26],103%
same,"viability, T/C",[27],87.7%
same,"viability, T/C",[28],86.9%
same,"viability, T/C",[29],66.1%
same,"viability, T/C",[30],47%
same,"viability, T/C",[31],115%
same,"viability, T/C",[32],104%
same,"viability, T/C",[33],88.3%
same,"viability, T/C",[34],92.9%
same,"viability, T/C",[35],76.6%
same,"viability, T/C",[36],42.6%
COc1cc2cc(C(=O)CCC(=O)O)sc2cc1OC + Cc1cccc(N(C)C(=O)C2C(O)CCN2c2nc(C)cc(C(F)(F)F)c2C#N)c1,IC50,second compound 0.0316 µM,> 10 µM
same,IC50,second compound 0.1 µM,> 10 µM
same,IC50,second compound 0.316 µM,> 10 µM
same,IC50,second compound 1 µM,> 10 µM
same,IC50,second compound 3.16 µM,> 10 µM
same,IC50,second compound 10 µM,> 10 µM
same,"viability, T/C",[1],99.1%
same,"viability, T/C",[2],101%
same,"viability, T/C",[3],109%
same,"viability, T/C",[4],106%
same,"viability, T/C",[5],101%
same,"viability, T/C",[6],115%
same,"viability, T/C",[7],98.3%
same,"viability, T/C",[8],107%
same,"viability, T/C",[9],111%
same,"viability, T/C",[10],87.8%
same,"viability, T/C",[11],95.6%
same,"viability, T/C",[12],102%
same,"viability, T/C",[13],115%
same,"viability, T/C",[14],114%
same,"viability, T/C",[15],89.5%
same,"viability, T/C",[16],100%
same,"viability, T/C",[17],95.9%
same,"viability, T/C",[18],102%
same,"viability, T/C",[19],91.7%
same,"viability, T/C",[20],98.5%
same,"viability, T/C",[21],90.2%
same,"viability, T/C",[22],118%
same,"viability, T/C",[23],92.8%
same,"viability, T/C",[24],102%
same,"viability, T/C",[25],94.9%
same,"viability, T/C",[26],115%
same,"viability, T/C",[27],116%
same,"viability, T/C",[28],112%
same,"viability, T/C",[29],112%
same,"viability, T/C",[30],106%
same,"viability, T/C",[31],121%
same,"viability, T/C",[32],108%
same,"viability, T/C",[33],122%
same,"viability, T/C",[34],116%
same,"viability, T/C",[35],119%
same,"viability, T/C",[36],117%
COc1ccc([C@@H](O)c2cc(-c3ncnc4cc(N5CCOCC5)ccc34)c(F)cc2Cl)nn1 + Cc1cccc(N(C)C(=O)C2C(O)CCN2c2nc(C)cc(C(F)(F)F)c2C#N)c1,IC50,second compound 0.0316 µM,2.68 µM
same,IC50,second compound 0.1 µM,2.21 µM
same,IC50,second compound 0.316 µM,2.51 µM
same,IC50,second compound 1 µM,2.53 µM
same,IC50,second compound 3.16 µM,2.48 µM
same,IC50,second compound 10 µM,3.57 µM
same,"viability, T/C",[1],90.4%
same,"viability, T/C",[2],105%
same,"viability, T/C",[3],76%
same,"viability, T/C",[4],75.5%
same,"viability, T/C",[5],42.4%
same,"viability, T/C",[6],36.9%
same,"viability, T/C",[7],98.3%
same,"viability, T/C",[8],84%
same,"viability, T/C",[9],85.8%
same,"viability, T/C",[10],67.9%
same,"viability, T/C",[11],41%
same,"viability, T/C",[12],31.4%
same,"viability, T/C",[13],99%
same,"viability, T/C",[14],101%
same,"viability, T/C",[15],86.3%
same,"viability, T/C",[16],71.6%
same,"viability, T/C",[17],43.5%
same,"viability, T/C",[18],33.4%
same,"viability, T/C",[19],100%
same,"viability, T/C",[20],98.3%
same,"viability, T/C",[21],81.9%
same,"viability, T/C",[22],63.4%
same,"viability, T/C",[23],48.4%
same,"viability, T/C",[24],32.8%
same,"viability, T/C",[25],107%
same,"viability, T/C",[26],99.8%
same,"viability, T/C",[27],90.4%
same,"viability, T/C",[28],61.4%
same,"viability, T/C",[29],49.7%
same,"viability, T/C",[30],33.8%
same,"viability, T/C",[31],117%
same,"viability, T/C",[32],92.5%
same,"viability, T/C",[33],90.5%
same,"viability, T/C",[34],65%
same,"viability, T/C",[35],52.3%
same,"viability, T/C",[36],35.6%
O=C(Nc1ccc(O)c(NS(=O)(=O)c2ccc(F)cc2)c1)c1ccc(-c2ccccc2)cc1 + Cc1cccc(N(C)C(=O)C2C(O)CCN2c2nc(C)cc(C(F)(F)F)c2C#N)c1,IC50,second compound 0.0316 µM,> 10 µM
same,IC50,second compound 0.1 µM,> 10 µM
same,IC50,second compound 0.316 µM,> 10 µM
same,IC50,second compound 1 µM,> 10 µM
same,IC50,second compound 3.16 µM,> 10 µM
same,IC50,second compound 10 µM,> 10 µM
same,"viability, T/C",[1],96.5%
same,"viability, T/C",[2],90.4%
same,"viability, T/C",[3],86.6%
same,"viability, T/C",[4],91.7%
same,"viability, T/C",[5],81.9%
same,"viability, T/C",[6],65.5%
same,"viability, T/C",[7],98.6%
same,"viability, T/C",[8],98%
same,"viability, T/C",[9],96.5%
same,"viability, T/C",[10],80%
same,"viability, T/C",[11],79.3%
same,"viability, T/C",[12],66.3%
same,"viability, T/C",[13],97.6%
same,"viability, T/C",[14],103%
same,"viability, T/C",[15],95.3%
same,"viability, T/C",[16],93.1%
same,"viability, T/C",[17],83.3%
same,"viability, T/C",[18],68.2%
same,"viability, T/C",[19],97.9%
same,"viability, T/C",[20],99.7%
same,"viability, T/C",[21],99.1%
same,"viability, T/C",[22],82.9%
same,"viability, T/C",[23],88.3%
same,"viability, T/C",[24],71.1%
same,"viability, T/C",[25],94.6%
same,"viability, T/C",[26],103%
same,"viability, T/C",[27],85.3%
same,"viability, T/C",[28],105%
same,"viability, T/C",[29],80.8%
same,"viability, T/C",[30],75.4%
same,"viability, T/C",[31],105%
same,"viability, T/C",[32],102%
same,"viability, T/C",[33],94.2%
same,"viability, T/C",[34],91%
same,"viability, T/C",[35],81.5%
same,"viability, T/C",[36],57.1%

# From PubChem BioAssay AID1963833 (Molecular Pharmacology Branch, DTP, NCI, 2024)
